In publication PMC4386068 (Journal of chemical information and modeling, 2015):

Biological target: InhA (Mtb enoyl-acyl-carrier-protein reductase) (Mycobacterium tuberculosis, UniProt P9WGR1)
Experiment: InhA enzyme inhibition assay, % inhibition at […] without pre-incubation
Assay type: biochemical
Details: read-out: % inhibition at 100 nM

InhA (Mtb enoyl-acyl-carrier-protein reductase), sequence (P9WGR1 whole entry, looked up): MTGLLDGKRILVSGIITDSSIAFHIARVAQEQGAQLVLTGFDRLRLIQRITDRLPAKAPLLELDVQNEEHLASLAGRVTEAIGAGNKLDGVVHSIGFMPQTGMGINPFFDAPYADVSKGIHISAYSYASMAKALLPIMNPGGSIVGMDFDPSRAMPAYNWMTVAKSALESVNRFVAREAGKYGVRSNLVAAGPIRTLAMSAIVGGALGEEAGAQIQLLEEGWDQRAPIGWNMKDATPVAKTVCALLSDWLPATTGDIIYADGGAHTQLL

CCCCCCc1ccc(Oc2ccccc2C)c(O)c1 [PT70]
inhibition at 0.1 µM: 75%
